Consider 15 compounds from patent US11365183B2, “Eicosanoid derivatives” (MAX-DELBRUECK-CENTRUM FUER MOLEKULARE MEDIZIN, priority 2009, dated 2022).

Type in all cases: cell-based
For experiment [1], the system named is neonatal rat cardiomyocytes (NRCMs). Put plainly: Chronotropic effect on spontaneous beating rate of cultured neonatal rat cardiomyocytes (identification of agonists). The following applies: for agonistic / chronotropic effect on NRCMs, in words: compound alone; for agonistic / chronotropic effect on NRCMs, in words / chronotropic effect (Δ beats/min), mean±SE: 30 nM, incubation time 5 min; for chronotropic effect (Δ beats/min), mean±SE: NRCM clusters. From the text: This negative chronotropic effect reflects the capacity of the analogs to interact with and to activate a G-protein coupled receptor or other primary cellular targets that reduce the contractility of cardiomyocytes under basal and stress-induced conditions.
The compounds included EPA and 17,18-EETeTr (compounds 01 and 02; purchased from Cayman Chemical) as well as all but one (compound 16) of the analogs synthesized as described in examples 1-24. The R,S— and S,R-enantiomers of 17,18-EETeTr (compounds 03 and 04) were prepared resolving the racemic mixture (compound 02) by means of chiral-phase HPLC as described previously (Barbosa-Sicard E, Markovic M, Honeck H, Christ B, Muller D N, Schunck W H. Biochem Biophys Res Commun. 2005 Apr. 22; 329(4):1275-81). Before use, the compounds to be tested were prepared as 1000-fold stock solutions in ethanol.
Isolation and cultivation of NRCMs were performed as described previously (Wallukat, G; Wollenberger, A. Biomed Biochim Acta. 1987; 78:634-639; Wallukat G, Homuth V, Fischer T, Lindschau C, Horstkamp B, Jupner A, Baur E, Nissen E, Vetter K, Neichel D, Dudenhausen J W, Haller H, Luft F C. J Clin Invest. 1999; 103: 945-952). Briefly, neonatal Wistar rats (1-2 days old) were killed in conformity to the recommendations of the Community of Health Service of the City of Berlin and the cardiomyocytes were dissociated from the minced ventricles with a 0.2% solution of crude trypsin. The isolated cells were then cultured as monolayers on the bottom (12.5 cm^2) of Falcon flasks in 2.5 ml of Halle S M 20-I medium equilibrated with humidified air. The medium contained 10% heat-inactivated FCS and 2 μmol/l fluoro-deoxyuridine (Serva, Heidelberg, Germany), the latter to prevent proliferation of non-muscle cells. The NRCMs (2.4×10^6 cells/flask) were cultured at 37° C. in an incubator. After 5 to 7 days, the NRCMs formed spontaneously beating cell clusters. […] On the day of the experiment, the culture medium was replaced by 2.0 ml fresh serum-containing medium. Two hours later, the beating rates were monitored at 37° C. using an inverted microscope equipped with a heating stage. To determine the basal rate, 6 to 8 individual clusters were selected and the number of contractions was counted for 15 sec. After that, the compound to be tested was added to the culture and the beating rate of the same clusters was monitored 5 min later again. Based on the difference between the basal and compound-induced beating rate of the individual clusters, the chronotropic effects (Δ beats/min) were calculated and are given as mean±SE values. N refers to the number of clusters monitored which originated, in general, from at least three independent NRCM cultures.
This effect was fully expressed using an EPA concentration of 3.3 μM and an incubation time of 30 min. In contrast, 17,18-EETeTr (C02) produced the same effect almost immediately and already in the low nanomolar range (EC50 of 1-2 nM, data not shown). To compare the activity of 17,18-EETeTr with that of its synthetic analogs, all these compounds were tested at a final concentration of 30 nM and using an incubation time of 5 min.

The test system is the same in experiment [2]. Put plainly: NRCM bioassay with pharmacological inhibitors (mechanism of cellular action). The following applies: for inhibition of the negative chronotropic effects of EPA, 17,18-EETeTr and C13: 5 min preincubation, 11,12-EET 30 nM, C3, AH6089 10 μM, EPA 3.3 μM, 17,18-EETeTr 30 nM, C13 30 nM; for inhibition of the negative chronotropic effects of EPA, 17,18-EETeTr and C13 / blocking of the positive chronotropic effect of butaprost: calphostin C 100 nM, H89 1 μM; for blocking of the positive chronotropic effect of butaprost: butaprost 100 nM, AH6089 10 μM. The procedure:
The bioassay with NRCMs was performed as described in examples 25 and 26. […] The cultured NRCMs were preincubated without or with one of the compounds indicated in FIG. 4 for 5 min before the effect of the following agonists was determined: EPA (3.3 μM), 17,18-EETeTr (30 nM) or C13 (30 nM). In some experiments, the NRCMs were stimulated with a selective EP2 prostanoid receptor agonist (butaprost from Sigma-Aldrich; used at a final concentration of 100 nM) to provide a control for the effect of certain inhibitors.

The test system is the same in experiment [3]. Put plainly: Antagonism of the negative chronotropic effect of agonists in NRCMs (identification of antagonists). The note with it: 5 min preincubation; C4 and potential antagonist each 30 nM. The procedure: These antagonists were selected based on their capacity to abolish the negative chronotropic effects of EPA, 17,18-EETeTr and their synthetic agonists on the contractility of neonatal rat cardiomyocytes.
Potential antagonists included compounds C1, C3, C5, C6, C7, and C8, which were synthesized as described above in the corresponding examples.
The bioassay was performed with NRCMs as described in example 25. In the first series of experiments, compound C4 was used as the agonist and its effect was determined after preincubating the cultured NRCMc for 5 min with one of the potential antagonists. Both C4 and the potential antagonist were used at a final concentration of 30 nM.

“Also recorded” adds a separate entry of the source.

For `CCNC(=O)NCCCC/C=C\CCCCCCCCCC(=O)OCCOCCOCCO` [Compound C18, 2-(2-(2-Hydroxyethoxy)ethoxy)ethyl 16-(3-ethylureido)hexadec-11 (Z)-enoate], in experiment [1], the “agonistic / chronotropic effect on NRCMs, in words” value (“agonistic / chronotropic effect” below) is listed as “Agonists”.
For the compound `CNC(=O)C(=O)NCCCC/C=C\CCCCCCCCCC(=O)O` [Compound C13, 16-(2-(methylamino)-2-oxoacetamido)hexadac-11(Z)-enoic acid], in experiment [1], the “chronotropic effect (Δ beats/min), mean±SE” value is −33.7±1.3 beats/min and the “agonistic / chronotropic effect” value was “Agonists”.
For the compound `CCCCC/C=C\CC1OC1C/C=C\C/C=C\CCCC(=O)O` (stereo not drawn) [11,12-EET, 11,12-epoxyeicosatrienoic acid], the “inhibition of the negative chronotropic effects of EPA, 17,18-EETeTr and C13” value (“inhibition … 17,18-EETeTr and C13” for short) in experiment [2] is “strongly inhibited”.
On to calphostin C, for which, in experiment [2], the “inhibition … 17,18-EETeTr and C13” value was “strongly inhibited”; the “blocking of the positive chronotropic effect of butaprost” value (“blocking” below) is “not”.
`CCC1OC1CCCCCCC/C=C\CCCCCCC(=O)O` (stereo not drawn) [Compound C6, 16-[(Z)-3-Ethyloxiranyl]hexadec-8(Z)-enoic Acid]: the “inhibition of the agonistic effect of compound C4” value in experiment [3] was “did not inhibit”. The “agonistic / chronotropic effect” value in experiment [1] was “inactive when tested alone”.
As to `CC/C=C\C/C=C\C/C=C\C/C=C\C/C=C\CCCC(=O)O` [EPA, eicosapentaenoic acid, reference compound], the “concentration resulting in a progressive reduction of the beating rate” value in experiment [1] (NRCM cultures) is recorded as “above 1 μM”. Moreover, in experiment [1] (incubation time of 30 min), the “concentration at which the reduction of the beating rate was fully expressed” value was determined as 3.3 µM.
Regarding `CCC1OC1C/C=C/C/C=C/C/C=C/C/C=C/CCCC(=O)O` (stereo not drawn) [17,18-EETeTr, reference compound], in experiment [1], the “chronotropic effect (Δ beats/min), mean±SE” value is on record as −22.5±0.8 beats/min and the “agonistic / chronotropic effect” value is recorded as “acted as agonist”. Besides, the EC50 (in general, the concentration needed to bring the measured effect to its halfway point) in experiment [1] (NRCMs, effect almost immediate, data not shown, read-out: EC50 of reduction of the beating rate) fell in the range of 1 to 2 nM.
As to `CCCC1([C@H](O)C/C=C/[C@H]2[C@H](O)CC(=O)[C@@H]2CCCCCCC(=O)OC)CCC1` [butaprost], in experiment [2] (100 nM), the “chronotropic effect on NRCMs” value was “positive chronotropic effect”.
In the case of `CCC1OC1CCCCCCCCCC/C=C\CCCC(=O)O` (stereo not drawn) [Compound C7, 16-[(Z)-3-Ethyloxiranyl]hexadec-5(Z)-enoic Acid], in experiment [3], the “inhibition of the agonistic effect of compound C4” value is listed as “did not inhibit”. For the same compound, in experiment [1], the “agonistic / chronotropic effect” value was “inactive when tested alone”.
On the same counts, the results for `CCC1OC1C/C=C\CCCCCCC/C=C\CCCC(=O)O` (stereo not drawn) [Compound C1, (5Z,14Z)-16-(3-Ethyloxirane-2-yl)hexadeca-5,14-dienoic acid] are “did not inhibit” and “inactive when tested alone”.
On the same counts, the results for `CCC1OC1C/C=C\CCCCCCCCCCCCC(=O)O` (stereo not drawn) [Compound C5, 16-[(Z)-3-Ethyloxiranyl]hexadec-14(Z)-enoic Acid] are “significantly inhibited” and “no effect; also recorded: did not exert any significant effect”.
As to `O=S(=O)(NCCNC/C=C/c1ccc(Br)cc1)c1cccc2cnccc12` [Compound H89], in experiment [2], the “inhibition … 17,18-EETeTr and C13” value is “not affected”; the “blocking” value was “blocked”.
In the case of `CCC1OC1CCCC/C=C\CCCCCCCCCC(=O)O` (stereo not drawn) [Compound C4, 16-[(Z)-3-Ethyloxiranyl]hexadec-11(Z)-enoic Acid], in experiment [1], the “chronotropic effect (Δ beats/min), mean±SE” value was −18.3±1.5 beats/min and the “agonistic / chronotropic effect” value is “Agonists; also recorded: agonistic effects”.
Consider `CCC1OC1CCCC/C=C\CCCC/C=C\CCCC(=O)O` (stereo not drawn) [Compound C2, (5Z,11Z)-16-(3-Ethyloxirane-2-yl)hexadeca-5,11-dienoic acid], for which the “agonistic / chronotropic effect” value in experiment [1] was “Agonists”.
For `CC(C)Oc1ccc2c(=O)c3cc(C(=O)O)ccc3oc2c1` [AH6089], in experiment [2], the “inhibition … 17,18-EETeTr and C13” value was “strongly inhibited”; the “blocking” value is “blocked”.
